{"source": "patent US9750841B2", "about": "“Biodegradable medical adhesive and preparation method and use thereof” (INSTITUTE OF PHARMACOLOGY AND TOXICOLOGY ACADEMY OF …, priority 2011, dated 2017)", "key": {"[1]": {"experiment": "Intestinal skyrocketing compression test in rats", "format": "in vivo, SD rats", "settings": "rat small intestine, 2 mm hole closed with 5 uL adhesive, tested after 3 min, seven animals per group", "method": "Twenty SD rats (purchased from Experimental Animal Center of Academy of Military Medical Sciences) were anaesthetized by intraperitoneal injection of 45 mg/kg sodium pentobarbital, and unhaired on the abdomen. The abdominal cavity was opened, and a section of small intestine 45 mm was taken out. One end of the small intestine was ligated with a silk thread, and the other end was cut to make a small incision, which was then connected to a three-way tube in connection with a pressure gauge and a tension transducer. A syringe needle 2 mm in diameter was used to open a small hole in the small intestine. After cleaning off drainage with cotton, the small hole was rapidly closed by smearing 5 uL medical adhesive, and then test was conducted after standing for 3 min. […] The pressure value at this point was just the maximum tolerable pressure. There were seven animals per group, and the average value and variance were calculated."}, "[2]": {"experiment": "Test of curing time of formulated adhesives on pigskin", "format": "physicochemical", "settings": "between two pieces of pigskin, room temperature", "text": "Test Method: The medical adhesives of different formulations in Examples 1 and 2 were respectively dropped in a small amount on the surface of one piece of pigskin at room temperature, and the other piece of pigskin was rapidly lapped thereon; the two pieces of pigskin were respectively pulled in opposite directions, to test the adhesion between them. The duration starting from the generation of adhesion between the two pieces of pigskin to the complete cure of the liquid adhesive between the two pieces of pigskin after lapping for a certain time was designated as the curing time."}, "[3]": {"experiment": "TEM test of adhesive structure", "format": "physicochemical", "settings": "0.1 mg/mL dilution in water, phosphotungstic acid staining", "method": "20 mg of adhesive (A, n-butyl cyanoacrylate as control; B, formulated adhesive J01 (bis-α-cyanoacrylic acid PEG2000 ester:n-butyl cyanoacrylate 1:1, i.e., the formulated adhesive in Example 1) was dissolved in 1 mL of redistilled acetone, to obtain a homogeneous solution, which was diluted by 100-fold. 0.5 mL of the dilution was taken and mixed with 0.5 mL of deionized water. Acetone was distilled off, and water was supplemented till 1 mL, to obtain a 0.1 mg/mL dilution. 15 uL of the dilution was dropped on a copper web-like of electron microscopy, and settled for 15 min. Then, water was removed by adsorption with filter paper. After staining with 5 uL of phosphotungstic acid for 2 min, the samples were observed by transmission electron microscopy."}, "[4]": {"experiment": "Adhesion test of skin incision injury of dog", "format": "in vivo", "settings": "4 cm skin incision, two stitches plus adhesive, after one week", "quoted_text": "Adult test dogs (purchased from Experimental Animal Center of Academy of Military Medical Sciences) were unhaired on the neck and back, and disinfected. A longitudinal incision of about 4 cm in length was cut on the left side, deep to muscular layer. […] On the other side of the same position, an incision of the same size was cut, and also sutured in two stitches. Then, the wound was treated in the same way with n-butyl cyanoacrylate."}, "[5]": {"experiment": "Degradation of cured adhesive in PBS buffer", "format": "physicochemical", "settings": "14 days, 0.1 M phosphate buffer pH 7.2-7.4, 37.5° C., average of three samples", "text": "After 14 days, the residual solids were weighed. The results were used to evaluate the degradation properties."}, "[6]": {"settings": "rat, in vivo", "method": "Two groups of adult rats, each six, were taken. The abdominal cavity was opened, a section of small intestine was lifted and stretched out with a biodegradable thread, approximately 1 cm away from the body, and in an inverted “U” shape. […] After the adhesive bond was completely cured and the small intestine was adhered together (about 1 minute), the small intestine was put back into the abdominal cavity, followed by suturing. Normal healing time of biological tissue was about 7-10 days. After 2 weeks, the small intestine was stretched out again, for observing the changes of the small intestine per se and the adhesive bond."}, "[7]": {"experiment": "Adhesion test of skin incision injury, rats", "format": "in vivo", "settings": "2 cm dorsal skin incision, observed over 7 days", "method": "(§1) Five adult rats and five guinea pigs were unhaired on the back, and subjected to abdominal anesthesia. After the back was disinfected, a longitudinal incision of about 2 cm in length was cut about 1 cm next to the dorsal line, deep to muscular layer. […] On the other side of the back, an incision of the same size was cut, and the wound was treated in the same way with the control adhesive n-butyl cyanoacrylate. Finally, the operative sites were bandaged using gauze."}, "[8]": {"experiment": "Adhesion test of skin incision injury, guinea pigs", "format": "in vivo", "settings": "2 cm dorsal skin incision, observed over 7 days", "method": "as §1"}, "[9]": {"experiment": "Accelerated degradation in 0.1 N NaOH solution", "format": "physicochemical", "settings": "disappearance to the naked eye", "method": "Further accelerated degradation test was carried out in a 0.1 N NaOH solution. The operation method was the same as that provided in this example, with the use of formulated adhesive J01 and the control as samples. The time point when the adhesive bond completely disappeared to the naked eye was regarded as the complete degradation time."}}}
{"smiles": "C=C(C#N)C(=O)OCCCC", "note": "[n-butyl cyanoacrylate]", "values": [{"measurement": "maximum tolerable pressure", "setting": "[1]", "value": "120.22±26.81", "unit": "mmHg"}, {"measurement": "curing time", "setting": "[2]", "value": "5 to 15", "unit": "s"}, {"measurement": "structure observed by transmission electron microscopy", "setting": "[3]", "value": "relatively solid and dense microsphere structure"}, {"measurement": "wound healing", "setting": "[4]", "value": "good healing"}, {"measurement": "Residual solids % in PBS", "setting": "[5]", "value": 95.74, "unit": "%"}, {"measurement": "changes of the small intestine tissue", "setting": "[6]", "value": "significantly had hyperplasia and significantly became thicker"}, {"measurement": "wound closure", "setting": "[7]", "value": "well closed"}, {"measurement": "wound closure", "setting": "[8]", "value": "well closed"}, {"measurement": "complete degradation time in NaOH (solids completely disappeared)", "setting": "[9]", "value": 4, "unit": "days"}]}
